# Test results from patent publication US11311504B2 (priority 2012, dated 2022).
# Test system: rat
# Conditions: in vivo
compound,measurement,value
CC(=O)Nc1ccc(O)cc1 [Paracetamol],timepoint of peak effect,120 min p. appl.
